{
  "source": "paper PMC6410202",
  "about": "“Dual Action of the PN159/KLAL/MAP Peptide: Increase of Drug Penetration across Caco-2 Intestinal Barrier Model by Modulation of Tight Junctions and Plasma Membrane Permeability” (Pharmaceutics, 2019)",
  "key": {"Caco-2 cells [1]": {"system": "Caco-2 cells", "assay": "Immunostaining of junctional proteins and F-actin", "format": "cell-based, human", "settings": "1 h", "description": "Morphological changes in interepithelial junctions after treatment with different concentrations of CPPs (100 μM) and PN159 peptide (1, 3, 10, 30 and 100 μM) were followed by immunostaining for claudin-1 integral membrane tight junction protein, β-catenin and zonula occludens protein-1 (ZO-1) cytoplasmic linker proteins. F-actin was stained by fluorescently labeled phalloidin. Treatments lasted for 1 h. After peptide treatment cell layers were washed with PBS and fixed with a 1:1 mixture of ice cold acetone and methanol for 2 min. Cells were blocked with 3% bovine serum albumin in PBS and incubated with primary antibodies mouse anti-claudin-1 and -4, rabbit anti-ZO-1 and rabbit anti-β-catenin (Life Technologies, Carlsbad, CA, USA) overnight. Fluorescent Atto 647N-phalloidin (ATTO-TEC GmbH, Germany) lasted for 1 h. Incubation with Alexa Fluor-488-labeled anti-mouse and anti-rabbit secondary antibodies (Life Technologies, Invitrogen, USA) lasted for 1 h. Bis-benzimide dye (Hoechst 33342) was used to stain cell nuclei. After mounting (Fluoromount-G; Southern Biotech, Birmingham, AL, USA) the samples staining was visualized by a Leica TCS SP5 confocal laser scanning microscope (Leica Microsystems GmbH, Wetzlar, Germany) and Visitron spinning disk confocal system (Visitron Systems GmbH, Puchheim, Germany)."}, "Caco-2 cells [2]": {"system": "Caco-2 cells", "assay": "Transmission electron microscopy of tight junctions", "format": "cell-based, human", "settings": "30 min", "description": "Cells grown on culture inserts were treated with 10 μM PN159 peptide for 30 min and fixed immediately after treatment or after a 1-day recovery. Cells were briefly washed with phosphate-buffered saline (PBS) and fixed with 3% paraformaldehyde containing 0.5% glutaraldehyde in cacodylate buffer (pH 7.4) for 30 min at 4 °C. After washing with the buffer several times, cells were postfixed in 1% OsO4 for 20 min. Following a rinse with distilled water, the cells were block stained with 1% uranyl acetate in 50% ethanol for 20 min, dehydrated in graded ethanol and after the last step of dehydration inserts were placed in the 1:1 mixture of ethanol and Taab 812 (Taab; Aldermaston, Berks, UK) for 10 min at 30°C. Finally, the membranes of the culture inserts with the cells were removed from their support and embedded in Taab 812. Polymerization was performed overnight at 60°C. Ultrathin sections were cut perpendicularly for the membrane using a Leica EM UC6 ultramicrotome (Nussloch, Germany) and picked up on formvar-coated single-slot copper grids. […] Altogether, 105 non-overlapping images from the 3 groups at the same magnification were analyzed for the presence or absence of tight junctions (control group n = 28; PN159 group n = 42; recovery group n = 35)."}, "Caco-2 cell layers": {"system": "Caco-2 cell layers", "assay": "Penetration of marker and drug molecules across Caco-2 cell layers (Papp A-B)", "settings": "PN159 10 and 30 μM, 1-h treatment", "description": "In the permeability experiments inserts with Caco-2 cell layers grown for 3 weeks were transferred to 12-well plates containing 1.5 mL Ringer–Hepes buffer in the lower (basal or acceptor) compartments. In the upper or apical compartments culture medium was replaced by 0.5 mL buffer containing peptide solutions: PN159 peptide at 1, 3, 10 and 30 μM concentrations and CPPs at 100 μM concentration. […] The incubation with permeability markers in the presence of PN159 peptide lasted for 30 min. In case of CPPs the incubation time with fluorescein was 1-h. Samples were collected from both compartments and the concentrations of the marker molecules were determined by a fluorescence multi-well plate reader (Fluostar Optima; excitation wavelength: 485 nm, emission wavelength: 535 nm in the case of fluorescein and excitation wavelength: 584 nm, emission wavelength: 680 nm in the case of Evans-blue labeled albumin). Fluorescein isothiocyanate (FITC)-labelled dextran marker molecules (Table 1) were used at 1 mM concentrations, and fluorescence intensities of collected samples were measured using a Fluorolog FL3-22 (Horiba Jobin Yvon, Paris, France) spectrofluorometer using 492 nm excitation wavelength, 515 nm emission wavelength, and 0.5 s integration time. Drugs were used at 10 μM concentrations and samples were measured by HPLC as described below. The apparent permeability coefficients (Papp) were calculated as described previously. Briefly, cleared volume was calculated from the concentration difference of the tracer in the basal compartments (Δ[C]B) after 30 min and apical compartments at 0 h ([C]A), the volume of the basal compartment (VB; 1.5 mL) and the surface area available for permeability (A; 1.1 cm^2).\nAnalytical measurements were performed on a Merck-Hitachi LaChrom HPLC system equipped with an ultraviolet (UV) and fluorescence detector (Merck, Darmstadt, Germany). All reagents used were of analytical reagent grade. […] In both cases 10μL sample was injected into the chromatographic system.\nThe chromatographic column was maintained at 40 °C and the 5 μL sample was injected onto the column.\nThe column temperature was maintained at 40 °C and a 20 μL sample was injected onto the chromatographic system. […] UV detection was set at 228 nm."}, "Caco-2 cells [3]": {"system": "Caco-2 cells", "assay": "Cellular uptake of Bodipy FL labeled PN159, confocal microscopy", "format": "cell-based, human", "settings": "Bodipy FL labeled PN159, 10 µM, 5 min, claudin-4 immunostaining", "description": "The Caco-2 cells were grown on glass bottomed petri dishes coated with collagen to visualize the cellular uptake of the Bodipy FL maleimide labeled (BODIPY FL N-(2-aminoethyl) maleimide, Thermo Fischer, Waltham, MA, USA) PN159 peptide. The cells were treated with peptide at concentrations of 1, 3 and 10 µM for 5 min. To stain the cell nuclei the H33342dye (1 μg/mL) was used before peptide treatment for 10 min. After peptide incubation the living cells were washed three times with Ringer–Hepes buffer supplemented with 1%fetal bovine serum (FBS) and examined immediately with a Visitron spinning disk confocal system.\nIn the case of the co-localization analysis the labeled PN159 peptide was used in 10 µM for 5 min. Then the cellular uptake cells were fixed and immunohistochemistry was performed for claudin-4. The samples were mounted and visualized by a Leica TCS SP5 confocal laser-scanning microscope."}, "claudin-1": {"system": "claudin-1", "parameters": "method as in PMID 26869428", "settings": "affinity measurements; cited from earlier work"}},
  "data": [
    {"compound": "CC(C)C[C@H](NC(=O)[C@H](C)NC(=O)[C@H](CCCCN)NC(=O)[C@H](CC(C)C)NC(=O)[C@H](C)NC(=O)[C@H](CC(C)C)NC(=O)[C@H](CCCCN)NC(=O)[C@H](CC(C)C)NC(=O)[C@H](C)NC(=O)[C@H](CC(C)C)NC(=O)[C@@H](N)CCCCN)C(=O)N[C@@H](CCCCN)C(=O)N[C@@H](C)C(=O)N[C@@H](C)C(=O)N[C@@H](CC(C)C)C(=O)N[C@@H](CCCCN)C(=O)N[C@@H](CC(C)C)C(=O)N[C@@H](C)C(N)=O", "note": "[PN159]", "values": [
      {"measurement": "Junctional and cell morphology (claudin-1, ZO-1, β-catenin, F-actin)", "setting": "Caco-2 cells [1]; PN159 1 μM", "result": "slight effect on cell morphology"},
      {"measurement": "Junctional and cell morphology (claudin-1, ZO-1, β-catenin, F-actin)", "setting": "Caco-2 cells [1]; PN159 10 μM", "result": "drastic change in actin cytoskeleton and epithelial junctional morphology"},
      {"measurement": "Ultrastructure of epithelial junctions", "setting": "Caco-2 cells [2]; 1-day recovery after PN159 10 μM", "result": "became similar to control cells"},
      {"measurement": "Tight junctions by electron microscopy", "setting": "Caco-2 cells [2]; PN159 10 μM", "result": "no junctions were observed"},
      {"measurement": "Permeability enhancement for fluorescein and albumin", "setting": "Caco-2 cell layers", "result": "most effective permeability enhancer activity"},
      {"measurement": "Co-localization with claudin-4", "setting": "Caco-2 cells [3]", "result": "visible in the cytoplasm and also in the cell membrane at the level of intercellular junctions"},
      {"measurement": "Binding", "setting": "claudin-1", "result": "in the micromolar range"}
    ]}
  ]
}
